Test results from ChEMBL document CHEMBL1146447, “Evaluation of the antifungal activity of natural xanthones from Garcinia mangostana and their synthetic derivatives” (1997).

Tests used:
Type in all cases: functional
Drechslera [1] = assay: Antifungal activity against Drechslera oryzae at 1000 ppm after 168 hrs at 24 hrs intervals
Drechslera [2] = assay: Antifungal activity against Drechslera oryzae at 10 ppm after 168 hrs at 24 hrs intervals
Alternaria alternata [3] = assay: Antifungal activity against Alternaria tenuis at 100 ppm after 168 hrs at 24 hrs intervals
[4] = tested on: Fusarium oxysporum f. sp. vasinfectum; assay: Antifungal activity against Fusarium oxysporum vasinfectum at 1000 ppm after 144 hrs at 24 hrs intervals
[5] = tested on: Fusarium oxysporum f. sp. vasinfectum; assay: Antifungal activity against Fusarium oxysporum vasinfectum at 100 ppm after 144 hrs at 24 hrs intervals
Alternaria alternata [6] = assay: Antifungal activity against Alternaria tenuis at 1 ppm after 168 hrs at 24 hrs intervals
Alternaria alternata [7] = assay: Antifungal activity against Alternaria tenuis at 10 ppm after 168 hrs at 24 hrs intervals
[8] = tested on: Fusarium oxysporum f. sp. vasinfectum; assay: Antifungal activity against Fusarium oxysporum vasinfectum at 1 ppm after 144 hrs at 24 hrs intervals
Alternaria alternata [9] = assay: Antifungal activity against Alternaria tenuis at 1000 ppm after 168 hrs at 24 hrs intervals
[10] = tested on: Fusarium oxysporum f. sp. vasinfectum; assay: Antifungal activity against Fusarium oxysporum vasinfectum at 10 ppm after 144 hrs at 24 hrs intervals
Drechslera [11] = assay: Antifungal activity against Drechslera oryzae at 100 ppm after 168 hrs at 24 hrs intervals
Drechslera [12] = assay: Antifungal activity against Drechslera oryzae at 1 ppm after 168 hrs at 24 hrs intervals

## CC(C)=CCc1c(O)cc2oc3cc(O)c(O)c(CC=C(C)C)c3c(=O)c2c1O
Drechslera [1]
  inhibition at 1000 ppm: 85%
Drechslera [2]
  inhibition at 10 ppm: 35%
Alternaria alternata [3]
  inhibition at 100 ppm: 33%
[4]
  inhibition at 1000 ppm: 64%
[5]
  inhibition at 100 ppm: 50%
Alternaria alternata [6]
  inhibition at 1 ppm: 1%
Alternaria alternata [7]
  inhibition at 10 ppm: 9%
[8]
  inhibition at 1 ppm: 0%
Alternaria alternata [9]
  inhibition at 1000 ppm: 58%
[10]
  inhibition at 10 ppm: 6%
Drechslera [11]
  inhibition at 100 ppm: 81%
Drechslera [12]
  inhibition at 1 ppm: 5%

## COc1c(OC(C)C)cc2oc3cc(OC(C)C)c(CC=C(C)C)c(O)c3c(=O)c2c1CC=C(C)C
Drechslera [1]
  inhibition at 1000 ppm: 9%
Drechslera [2]
  inhibition at 10 ppm: 4%
Alternaria alternata [3]
  inhibition at 100 ppm: -1%
[4]
  inhibition at 1000 ppm: 3%
[5]
  inhibition at 100 ppm: 4%
Alternaria alternata [6]
  inhibition at 1 ppm: -10%
Alternaria alternata [7]
  inhibition at 10 ppm: 2%
[8]
  inhibition at 1 ppm: 3%
Alternaria alternata [9]
  inhibition at 1000 ppm: 1%
[10]
  inhibition at 10 ppm: 1%
Drechslera [11]
  inhibition at 100 ppm: 1%
Drechslera [12]
  inhibition at 1 ppm: -1%

## C=CCOc1cc2oc3cc(OCC=C)c(OC)c(CC=C(C)C)c3c(=O)c2c(O)c1CC=C(C)C
Drechslera [1]
  inhibition at 1000 ppm: -34%
Drechslera [2]
  inhibition at 10 ppm: -18%
Alternaria alternata [3]
  inhibition at 100 ppm: 8%
[4]
  inhibition at 1000 ppm: 1%
[5]
  inhibition at 100 ppm: 4%
Alternaria alternata [6]
  inhibition at 1 ppm: -22%
Alternaria alternata [7]
  inhibition at 10 ppm: -13%
[8]
  inhibition at 1 ppm: 0%
Alternaria alternata [9]
  inhibition at 1000 ppm: 42%
[10]
  inhibition at 10 ppm: 1%
Drechslera [11]
  inhibition at 100 ppm: -4%
Drechslera [12]
  inhibition at 1 ppm: -19%

## COc1c(O)cc2oc3cc4c(c(O)c3c(=O)c2c1CC=C(C)C)CCC(C)(C)O4
Drechslera [1]
  inhibition at 1000 ppm: 61%
Drechslera [2]
  inhibition at 10 ppm: 45%
Alternaria alternata [3]
  inhibition at 100 ppm: 28%
[4]
  inhibition at 1000 ppm: 18%
[5]
  inhibition at 100 ppm: 19%
Alternaria alternata [6]
  inhibition at 1 ppm: 11%
Alternaria alternata [7]
  inhibition at 10 ppm: 15%
[8]
  inhibition at 1 ppm: 4%
Alternaria alternata [9]
  inhibition at 1000 ppm: 31%
[10]
  inhibition at 10 ppm: 8%
Drechslera [11]
  inhibition at 100 ppm: 58%
Drechslera [12]
  inhibition at 1 ppm: 29%

## COc1cc2oc3cc(OC)c(OC)c(CC=C(C)C)c3c(=O)c2c(O)c1CC=C(C)C
Drechslera [1]
  inhibition at 1000 ppm: 41%
Drechslera [2]
  inhibition at 10 ppm: 9%
Alternaria alternata [3]
  inhibition at 100 ppm: 16%
[4]
  inhibition at 1000 ppm: 17%
[5]
  inhibition at 100 ppm: 16%
Alternaria alternata [6]
  inhibition at 1 ppm: 14%
Alternaria alternata [7]
  inhibition at 10 ppm: 22%
[8]
  inhibition at 1 ppm: 5%
Alternaria alternata [9]
  inhibition at 1000 ppm: 16%
[10]
  inhibition at 10 ppm: 12%
Drechslera [11]
  inhibition at 100 ppm: 27%
Drechslera [12]
  inhibition at 1 ppm: 7%

## CCCOc1cc2oc3cc(OCCC)c(OC)c(CC=C(C)C)c3c(=O)c2c(O)c1CC=C(C)C
Drechslera [1]
  inhibition at 1000 ppm: -10%
Drechslera [2]
  inhibition at 10 ppm: -25%
Alternaria alternata [3]
  inhibition at 100 ppm: -2%
[4]
  inhibition at 1000 ppm: -2%
[5]
  inhibition at 100 ppm: -6%
Alternaria alternata [6]
  inhibition at 1 ppm: -6%
Alternaria alternata [7]
  inhibition at 10 ppm: -3%
[8]
  inhibition at 1 ppm: -4%
Alternaria alternata [9]
  inhibition at 1000 ppm: 1%
[10]
  inhibition at 10 ppm: 5%
Drechslera [11]
  inhibition at 100 ppm: -36%
Drechslera [12]
  inhibition at 1 ppm: 8%

## COc1c(OC(C)=O)cc2oc3cc(OC(C)=O)c(CC=C(C)C)c(O)c3c(=O)c2c1CC=C(C)C
Drechslera [1]
  inhibition at 1000 ppm: 14%
Drechslera [2]
  inhibition at 10 ppm: 51%
Alternaria alternata [3]
  inhibition at 100 ppm: 6%
[4]
  inhibition at 1000 ppm: 3%
[5]
  inhibition at 100 ppm: 4%
Alternaria alternata [6]
  inhibition at 1 ppm: 8%
Alternaria alternata [7]
  inhibition at 10 ppm: 6%
[8]
  inhibition at 1 ppm: 6%
Alternaria alternata [9]
  inhibition at 1000 ppm: -6%
[10]
  inhibition at 10 ppm: 5%
Drechslera [11]
  inhibition at 100 ppm: 11%
Drechslera [12]
  inhibition at 1 ppm: 11%

## CCCCOc1cc2oc3cc(OCCCC)c(OC)c(CC=C(C)C)c3c(=O)c2c(O)c1CC=C(C)C
Drechslera [1]
  inhibition at 1000 ppm: -69%
Drechslera [2]
  inhibition at 10 ppm: -38%
Alternaria alternata [3]
  inhibition at 100 ppm: -2%
[4]
  inhibition at 1000 ppm: -3%
[5]
  inhibition at 100 ppm: -4%
Alternaria alternata [6]
  inhibition at 1 ppm: 1%
Alternaria alternata [7]
  inhibition at 10 ppm: 4%
[8]
  inhibition at 1 ppm: -7%
Alternaria alternata [9]
  inhibition at 1000 ppm: -5%
[10]
  inhibition at 10 ppm: -4%
Drechslera [11]
  inhibition at 100 ppm: -66%
Drechslera [12]
  inhibition at 1 ppm: -38%

## S=c1c2ccccc2oc2ccccc12
Drechslera [1]
  inhibition at 1000 ppm: 10%
Drechslera [2]
  inhibition at 10 ppm: 5%
Alternaria alternata [3]
  inhibition at 100 ppm: -22%
[4]
  inhibition at 1000 ppm: 6%
[5]
  inhibition at 100 ppm: 4%
Alternaria alternata [6]
  inhibition at 1 ppm: -6%
Alternaria alternata [7]
  inhibition at 10 ppm: -12%
[8]
  inhibition at 1 ppm: 2%
Alternaria alternata [9]
  inhibition at 1000 ppm: -32%
[10]
  inhibition at 10 ppm: 4%
Drechslera [11]
  inhibition at 100 ppm: -11%
Drechslera [12]
  inhibition at 1 ppm: 11%

## C=C(C)COc1cc2oc3cc(OCC(=C)C)c(OC)c(CC=C(C)C)c3c(=O)c2c(O)c1CC=C(C)C
Drechslera [1]
  inhibition at 1000 ppm: 17%
Drechslera [2]
  inhibition at 10 ppm: -1%
Alternaria alternata [3]
  inhibition at 100 ppm: 4%
[4]
  inhibition at 1000 ppm: 9%
[5]
  inhibition at 100 ppm: 3%
Alternaria alternata [6]
  inhibition at 1 ppm: -8%
Alternaria alternata [7]
  inhibition at 10 ppm: -2%
[8]
  inhibition at 1 ppm: 1%
Alternaria alternata [9]
  inhibition at 1000 ppm: -1%
[10]
  inhibition at 10 ppm: 2%
Drechslera [11]
  inhibition at 100 ppm: -1%
Drechslera [12]
  inhibition at 1 ppm: -1%

## CCOc1cc2oc3cc(OCC)c(OC)c(CC=C(C)C)c3c(=O)c2c(O)c1CC=C(C)C
Drechslera [1]
  inhibition at 1000 ppm: -57%
Drechslera [2]
  inhibition at 10 ppm: -34%
Alternaria alternata [3]
  inhibition at 100 ppm: -11%
[4]
  inhibition at 1000 ppm: -1%
[5]
  inhibition at 100 ppm: -3%
Alternaria alternata [6]
  inhibition at 1 ppm: -4%
Alternaria alternata [7]
  inhibition at 10 ppm: 4%
[8]
  inhibition at 1 ppm: -3%
Alternaria alternata [9]
  inhibition at 1000 ppm: -1%
[10]
  inhibition at 10 ppm: -2%
Drechslera [11]
  inhibition at 100 ppm: -31%
Drechslera [12]
  inhibition at 1 ppm: -72%

## CC1(C)CCc2c(cc3oc4cc(O)c5c(c4c(=O)c3c2O)CCC(C)(C)O5)O1 [BR-XANTHONE A]
Drechslera [1]
  inhibition at 1000 ppm: 36%
Drechslera [2]
  inhibition at 10 ppm: 28%
Alternaria alternata [3]
  inhibition at 100 ppm: 15%
[4]
  inhibition at 1000 ppm: 3%
[5]
  inhibition at 100 ppm: 0%
Alternaria alternata [6]
  inhibition at 1 ppm: 14%
Alternaria alternata [7]
  inhibition at 10 ppm: 18%
[8]
  inhibition at 1 ppm: 3%
Alternaria alternata [9]
  inhibition at 1000 ppm: 14%
[10]
  inhibition at 10 ppm: 0%
Drechslera [11]
  inhibition at 100 ppm: 31%
Drechslera [12]
  inhibition at 1 ppm: 27%

## COc1c(O)cc2oc3cc(O)c(CC=C(C)C)c(O)c3c(=O)c2c1CCC(C)(C)O [GARCINONE D]
Drechslera [1]
  inhibition at 1000 ppm: 64%
Drechslera [2]
  inhibition at 10 ppm: 30%
Alternaria alternata [3]
  inhibition at 100 ppm: -11%
[4]
  inhibition at 1000 ppm: 41%
[5]
  inhibition at 100 ppm: 12%
Alternaria alternata [6]
  inhibition at 1 ppm: -7%
Alternaria alternata [7]
  inhibition at 10 ppm: 2%
[8]
  inhibition at 1 ppm: -1%
Alternaria alternata [9]
  inhibition at 1000 ppm: 26%
[10]
  inhibition at 10 ppm: 10%
Drechslera [11]
  inhibition at 100 ppm: 43%
Drechslera [12]
  inhibition at 1 ppm: 27%

## CC(C)=CCc1c(O)c(CC=C(C)C)c2oc3c(O)ccc(O)c3c(=O)c2c1O [GARTANIN]
Drechslera [1]
  inhibition at 1000 ppm: 71%
Drechslera [2]
  inhibition at 10 ppm: 54%
Alternaria alternata [3]
  inhibition at 100 ppm: 22%
[4]
  inhibition at 1000 ppm: 12%
[5]
  inhibition at 100 ppm: 9%
Alternaria alternata [6]
  inhibition at 1 ppm: 4%
Alternaria alternata [7]
  inhibition at 10 ppm: 20%
[8]
  inhibition at 1 ppm: 3%
Alternaria alternata [9]
  inhibition at 1000 ppm: 29%
[10]
  inhibition at 10 ppm: 4%
Drechslera [11]
  inhibition at 100 ppm: 75%
Drechslera [12]
  inhibition at 1 ppm: 18%

## COc1c(O)cc2oc3cc(O)c(CC=C(C)C)c(O)c3c(=O)c2c1CC=C(C)C [MANGOSTIN]
Drechslera [1]
  inhibition at 1000 ppm: 53%
Drechslera [2]
  inhibition at 10 ppm: 51%
Alternaria alternata [3]
  inhibition at 100 ppm: 39%
[4]
  inhibition at 1000 ppm: 24%
[5]
  inhibition at 100 ppm: 29%
Alternaria alternata [6]
  inhibition at 1 ppm: 17%
Alternaria alternata [7]
  inhibition at 10 ppm: 38%
[8]
  inhibition at 1 ppm: 11%
Alternaria alternata [9]
  inhibition at 1000 ppm: 41%
[10]
  inhibition at 10 ppm: 22%
Drechslera [11]
  inhibition at 100 ppm: 54%
Drechslera [12]
  inhibition at 1 ppm: 55%

## O=c1c2ccccc2oc2ccccc12 [XANTHONE]
Drechslera [1]
  inhibition at 1000 ppm: 3%
Drechslera [2]
  inhibition at 10 ppm: 29%
Alternaria alternata [3]
  inhibition at 100 ppm: -6%
[4]
  inhibition at 1000 ppm: 6%
[5]
  inhibition at 100 ppm: 1%
Alternaria alternata [6]
  inhibition at 1 ppm: -43%
Alternaria alternata [7]
  inhibition at 10 ppm: 5%
[8]
  inhibition at 1 ppm: -2%
Alternaria alternata [9]
  inhibition at 1000 ppm: -14%
[10]
  inhibition at 10 ppm: 8%
Drechslera [11]
  inhibition at 100 ppm: 34%
Drechslera [12]
  inhibition at 1 ppm: 19%
